# Experimental data published in ChEMBL document CHEMBL1201862, “PubChem BioAssay data set” (2004).
# Activity calls are given as the source filed them.
# Legend:
# [1] = target: Potassium channel subfamily K member 3 (Homo sapiens, UniProt O14649); experiment: TASK1 (KCNK3) potassium channel inhibitors, SAR follow-up, CHO cells, FluxOR thallium flux (AID 652212); assay type: functional
# [2] = MALME3 melanoma cell viability reduction, dose response, orthogonal assay for MITF inhibitor project, CellTiter-Glo luminescence, dry powder, set 5 (AID 651584); assay type: functional, cell-based; details: MALME-3
# [3] = SK-MEL-5 parental cell viability reduction, dose response, orthogonal assay for MITF inhibitor project, CellTiter-Glo luminescence, dry powder, set 8 (AID 651586); assay type: functional, cell-based
# [4] = TRPM1 promoter luciferase reporter signal decrease, dose response, MITF inhibitor project, cell-based, SK-MEL-5, dry powder, set 8 (AID 624430); assay type: functional
# [5] = A375 melanoma cell viability loss, dose response, counter-screen for MITF modulator project, CellTiter-Glo luminescence, dry powder, set 9 (AID 651591); assay type: functional, cell-based; details: A-375
# [6] = MITF Orthogonal Assay: MALME3 CTG Assay Measured in Cell-Based System Using Plate Reader - 2084-04_Inhibitor_Dose_DryPowder_Activity_Set6.; assay type: functional; details: MALME-3
# [7] = MITF Orthogonal Assay: SK-MEL-5 CTG Assay Measured in Cell-Based System Using Plate Reader - 2084-02_Inhibitor_Dose_DryPowder_Activity_Set7.; assay type: functional
# [8] = TRPM1 promoter luciferase reporter signal decrease, dose response, MITF inhibitor project, cell-based, SK-MEL-5, dry powder, set 9 (AID 651588); assay type: functional
# [9] = MITF: Counter assay: A375 proliferation Measured in Cell-Based System Using Plate Reader - 2084-03_Inhibitor_Dose_DryPowder_Activity_Set8.; assay type: functional; details: A-375
# [10] = Counterscreen for activators of the function of SWI/SNF related, matrix associated, actin dependent regulator of chromatin, subfamily a, member 2 (SMARCA2, BRM): Luminescence-based cell-based high throughput dose response assay to identify non-selective compounds using the VP16 reporter assay.; assay type: functional
# [11] = target: SWI/SNF-related matrix-associated actin-dependent regulator of chromatin subfamily A member 2 (Homo sapiens, UniProt P51531); experiment: Luminescence-based cell-based high throughput dose response assay to identify activators of the function of SWI/SNF related, matrix associated, actin dependent regulator of chromatin, subfamily a, member 2 (SMARCA2, BRM).; assay type: functional
# Chain of SWI/SNF-related matrix-associated actin-dependent regulator of chromatin subfamily A member 2 (P51531 whole entry, the tested form may be a part): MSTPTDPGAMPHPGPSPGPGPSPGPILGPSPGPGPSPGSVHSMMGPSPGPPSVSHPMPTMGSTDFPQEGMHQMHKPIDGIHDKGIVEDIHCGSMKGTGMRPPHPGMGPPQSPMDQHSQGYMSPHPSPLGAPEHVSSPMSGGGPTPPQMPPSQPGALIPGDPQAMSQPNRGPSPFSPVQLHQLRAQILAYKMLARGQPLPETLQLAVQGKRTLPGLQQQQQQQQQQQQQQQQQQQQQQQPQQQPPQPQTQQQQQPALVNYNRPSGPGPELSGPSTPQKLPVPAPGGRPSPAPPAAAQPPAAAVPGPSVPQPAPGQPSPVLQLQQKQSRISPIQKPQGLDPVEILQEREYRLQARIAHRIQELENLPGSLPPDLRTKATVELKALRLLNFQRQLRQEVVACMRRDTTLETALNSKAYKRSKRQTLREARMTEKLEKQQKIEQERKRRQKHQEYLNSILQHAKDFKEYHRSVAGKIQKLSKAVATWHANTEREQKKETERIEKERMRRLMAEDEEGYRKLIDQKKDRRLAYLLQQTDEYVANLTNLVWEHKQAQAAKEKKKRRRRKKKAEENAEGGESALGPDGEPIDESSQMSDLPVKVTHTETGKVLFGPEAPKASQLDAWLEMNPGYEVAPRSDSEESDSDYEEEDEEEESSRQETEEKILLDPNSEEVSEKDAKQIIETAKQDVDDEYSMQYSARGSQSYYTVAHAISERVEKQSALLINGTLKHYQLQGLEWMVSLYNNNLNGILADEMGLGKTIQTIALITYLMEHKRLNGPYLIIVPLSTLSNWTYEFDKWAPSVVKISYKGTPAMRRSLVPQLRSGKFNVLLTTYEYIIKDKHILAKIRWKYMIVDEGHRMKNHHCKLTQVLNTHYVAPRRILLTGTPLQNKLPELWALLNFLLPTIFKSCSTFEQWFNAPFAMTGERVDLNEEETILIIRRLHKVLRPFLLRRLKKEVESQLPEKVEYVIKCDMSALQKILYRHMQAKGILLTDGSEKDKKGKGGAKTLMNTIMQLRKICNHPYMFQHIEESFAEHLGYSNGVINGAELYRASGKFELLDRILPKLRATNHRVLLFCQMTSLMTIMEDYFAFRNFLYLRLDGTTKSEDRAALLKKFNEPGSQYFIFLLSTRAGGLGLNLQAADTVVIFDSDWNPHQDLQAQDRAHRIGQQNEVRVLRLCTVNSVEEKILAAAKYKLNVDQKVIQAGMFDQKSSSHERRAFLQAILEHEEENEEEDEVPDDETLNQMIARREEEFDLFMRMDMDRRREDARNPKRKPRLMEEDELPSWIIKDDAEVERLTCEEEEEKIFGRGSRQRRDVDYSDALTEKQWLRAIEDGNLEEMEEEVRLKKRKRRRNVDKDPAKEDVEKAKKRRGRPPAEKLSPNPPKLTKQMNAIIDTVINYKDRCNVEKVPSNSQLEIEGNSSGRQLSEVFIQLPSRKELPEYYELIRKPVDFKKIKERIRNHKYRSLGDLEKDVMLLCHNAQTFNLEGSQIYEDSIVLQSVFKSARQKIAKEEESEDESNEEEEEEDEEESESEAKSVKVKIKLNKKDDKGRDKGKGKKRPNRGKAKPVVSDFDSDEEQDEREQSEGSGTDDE
# [12] = target: E3 ubiquitin-protein ligase UHRF1 (Homo sapiens, UniProt Q96T88); experiment: Counterscreen for inhibitors of 5-meCpG-binding domain protein 2 (MBD2): TRFRET-based biochemical high throughput dose response assay to identify inhibitors of binding of ubiquitin-like with PHD and ring finger domains 1 (UHRF1) to methylated oligonucleotide.
# Chain of E3 ubiquitin-protein ligase UHRF1 (Q96T88 whole entry, the tested form may be a part): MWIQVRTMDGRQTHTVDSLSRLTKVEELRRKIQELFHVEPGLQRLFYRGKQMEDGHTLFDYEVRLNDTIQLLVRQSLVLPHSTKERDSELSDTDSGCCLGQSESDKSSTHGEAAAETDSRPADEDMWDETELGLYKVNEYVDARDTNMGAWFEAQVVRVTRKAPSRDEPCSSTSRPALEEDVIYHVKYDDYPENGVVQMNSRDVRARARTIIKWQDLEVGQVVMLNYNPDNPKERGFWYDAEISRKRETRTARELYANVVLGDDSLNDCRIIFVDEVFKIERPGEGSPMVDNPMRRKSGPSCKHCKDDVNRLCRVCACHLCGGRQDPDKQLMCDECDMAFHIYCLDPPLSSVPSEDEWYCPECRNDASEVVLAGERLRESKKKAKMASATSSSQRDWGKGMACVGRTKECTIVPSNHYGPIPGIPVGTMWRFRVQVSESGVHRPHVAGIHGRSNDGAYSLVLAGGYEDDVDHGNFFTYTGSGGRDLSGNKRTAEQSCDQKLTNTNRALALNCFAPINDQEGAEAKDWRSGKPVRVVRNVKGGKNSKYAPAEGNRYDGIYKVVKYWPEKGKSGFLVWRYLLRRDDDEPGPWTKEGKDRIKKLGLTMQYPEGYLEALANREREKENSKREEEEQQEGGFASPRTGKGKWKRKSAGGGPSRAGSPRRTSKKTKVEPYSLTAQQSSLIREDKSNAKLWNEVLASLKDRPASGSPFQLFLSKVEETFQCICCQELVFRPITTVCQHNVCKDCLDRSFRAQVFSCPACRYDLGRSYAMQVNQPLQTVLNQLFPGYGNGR
# [13] = HepG2 cell cytotoxicity, dose response, cytotoxicity control, ATP luminescence, cherry-pick, activator set 2 (AID 1053143); assay type: functional, cell-based
# [14] = Luminescence Cell-Based Dose Retest to Confirm Inhibitors of Cancer Stem Cells. [Related pubchem assays (depositor defined):AID2717, AID2721]; assay type: functional; details: Homo sapiens
# [15] = target: 1-phosphatidylinositol 4,5-bisphosphate phosphodiesterase gamma-1 (Homo sapiens, UniProt P19174); experiment: Counterscreen for inhibitors of phospholipase C isozymes (PLC-B3): Fluorescence-based biochemical high throughput dose response assay to identify inhibitors of phospholipase C isozymes (PLC-gamma1).
# [16] = target: 1-phosphatidylinositol 4,5-bisphosphate phosphodiesterase beta-3 (Homo sapiens, UniProt Q01970); experiment: Fluorescence-based biochemical high throughput dose response assay to identify inhibitors of phospholipase C isozymes (PLC-B3).
# Chain of 1-phosphatidylinositol 4,5-bisphosphate phosphodiesterase beta-3 (Q01970 whole entry): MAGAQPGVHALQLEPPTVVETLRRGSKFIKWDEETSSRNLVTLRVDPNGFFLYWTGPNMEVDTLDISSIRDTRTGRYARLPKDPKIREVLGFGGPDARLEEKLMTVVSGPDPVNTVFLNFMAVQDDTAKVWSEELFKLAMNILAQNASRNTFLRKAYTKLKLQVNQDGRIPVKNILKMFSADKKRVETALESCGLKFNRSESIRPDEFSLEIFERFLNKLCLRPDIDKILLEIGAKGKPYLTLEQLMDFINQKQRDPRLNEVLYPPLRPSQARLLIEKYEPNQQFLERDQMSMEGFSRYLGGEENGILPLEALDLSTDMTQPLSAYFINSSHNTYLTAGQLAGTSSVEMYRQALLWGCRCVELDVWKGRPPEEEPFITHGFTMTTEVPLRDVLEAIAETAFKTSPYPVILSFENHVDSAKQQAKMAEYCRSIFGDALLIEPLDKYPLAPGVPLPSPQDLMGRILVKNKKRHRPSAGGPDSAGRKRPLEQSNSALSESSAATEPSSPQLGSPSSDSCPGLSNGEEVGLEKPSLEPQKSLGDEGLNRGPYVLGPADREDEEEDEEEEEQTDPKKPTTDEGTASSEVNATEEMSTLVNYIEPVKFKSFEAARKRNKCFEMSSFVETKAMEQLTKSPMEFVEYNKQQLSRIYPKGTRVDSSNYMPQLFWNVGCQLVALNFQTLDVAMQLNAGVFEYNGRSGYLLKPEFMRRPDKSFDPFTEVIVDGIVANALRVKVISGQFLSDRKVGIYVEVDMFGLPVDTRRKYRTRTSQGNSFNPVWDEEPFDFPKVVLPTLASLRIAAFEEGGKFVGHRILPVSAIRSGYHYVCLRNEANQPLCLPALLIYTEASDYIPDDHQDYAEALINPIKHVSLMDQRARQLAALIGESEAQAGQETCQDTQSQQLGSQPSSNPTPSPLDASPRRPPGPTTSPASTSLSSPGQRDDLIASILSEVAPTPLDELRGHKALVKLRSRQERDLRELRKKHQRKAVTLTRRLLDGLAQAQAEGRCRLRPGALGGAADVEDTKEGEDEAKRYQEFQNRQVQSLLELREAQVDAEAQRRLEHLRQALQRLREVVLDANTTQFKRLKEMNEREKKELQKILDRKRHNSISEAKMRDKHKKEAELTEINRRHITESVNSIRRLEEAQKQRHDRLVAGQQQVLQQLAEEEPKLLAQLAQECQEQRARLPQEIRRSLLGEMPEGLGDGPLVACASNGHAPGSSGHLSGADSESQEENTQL
# Caspase-6 = Caspase-6 (Homo sapiens, UniProt P55212); experiment: human caspase-6 inhibitors, dose response, biochemical, VEID-R110 fluorescence, cherry-pick (AID 720632)
# Chain of Caspase-6 (P55212 24-179 limits assumed): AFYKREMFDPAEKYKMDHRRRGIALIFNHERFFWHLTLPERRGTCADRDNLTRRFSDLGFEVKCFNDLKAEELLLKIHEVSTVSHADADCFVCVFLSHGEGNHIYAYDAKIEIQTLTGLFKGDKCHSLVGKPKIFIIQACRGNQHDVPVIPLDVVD
# Chain of Caspase-6 (P55212 194-293 limits assumed): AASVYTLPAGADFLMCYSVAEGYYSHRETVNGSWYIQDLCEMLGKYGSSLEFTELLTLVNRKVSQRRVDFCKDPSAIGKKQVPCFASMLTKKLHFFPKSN
# [17] = Late stage assay provider results from the probe development effort to identify selective inhibitors of heat shock protein 90 (HSP90): Absorbance-based cell proliferation assay in SKBR3 cells.; assay type: functional; details: SK-BR-3
# [18] = Late stage assay provider results from the probe development effort to identify selective inhibitors of heat shock protein 90 (HSP90): Absorbance-based cell proliferation assay in MCF7 cells.; assay type: functional
# Kallikrein-7 = Kallikrein-7 (Homo sapiens, UniProt P49862); experiment: Fluorescence Intensity-based biochemical primary high throughput dose response assay to identify activators of kallikrein-7 (K7) zymogen.
# Chain of Kallikrein-7 (P49862 whole entry): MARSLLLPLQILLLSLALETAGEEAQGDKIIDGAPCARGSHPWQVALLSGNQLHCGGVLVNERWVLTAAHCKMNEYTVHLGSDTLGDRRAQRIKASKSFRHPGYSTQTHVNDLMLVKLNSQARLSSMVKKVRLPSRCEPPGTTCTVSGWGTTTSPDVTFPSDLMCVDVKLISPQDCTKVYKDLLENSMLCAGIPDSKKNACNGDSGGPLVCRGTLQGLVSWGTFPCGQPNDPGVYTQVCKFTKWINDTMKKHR
# HeLa = experiment: HeLa cell cytotoxicity, dose response, cytotoxicity control, ATP luminescence, cherry-pick samples (AID 687004); assay type: functional, cell-based; details: Homo sapiens
# [19] = HEK293 Cytotoxicity Assay Measured in Cell-Based System Using Plate Reader - 7071-01_Inhibitor_Dose_CherryPick_Activity_Set2.; assay type: functional
# HEK293 = experiment: HEK293T cell cytotoxicity, dose response, cytotoxicity control, ATP luminescence, cherry-pick samples (AID 687005); assay type: functional, cell-based; details: Homo sapiens;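 note: cells exposed to compound for 48 hours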
# [20] = ADAM10 protease inhibitors, dose response, selectivity assay for ADAM17 exosite inhibitor project, biochemical, FRET peptide substrate, recombinant human ADAM10 (AID 743259);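 note: ADAM10 enzyme cleaving a FRET peptide substrate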
# [21] = target: Disintegrin and metalloproteinase domain-containing protein 17 (Homo sapiens, UniProt P78536); experiment: exosite inhibitors of ADAM17, dose response, biochemical (AID 743260)
# [22] = cytotoxicity in HepG2 cells, dose response, cytotoxicity control, cell-based, cherry-picked samples (AID 1053183); assay type: functional
# [23] = A549 cell cytotoxicity, dose response, cytotoxicity control, 24 h, CellTiter-Glo luminescence, cherry-picks (AID 1053115); assay type: functional, cell-based; details: A549, 24 h
# [24] = target: T1, Methionyl-tRNA synthetase, putative (Trypanosoma brucei brucei, UniProt Q38C91); assay type: functional, Trypanosoma brucei brucei strain 927/4 GUTat10.1
# T1 sequence (Q38C91 whole entry): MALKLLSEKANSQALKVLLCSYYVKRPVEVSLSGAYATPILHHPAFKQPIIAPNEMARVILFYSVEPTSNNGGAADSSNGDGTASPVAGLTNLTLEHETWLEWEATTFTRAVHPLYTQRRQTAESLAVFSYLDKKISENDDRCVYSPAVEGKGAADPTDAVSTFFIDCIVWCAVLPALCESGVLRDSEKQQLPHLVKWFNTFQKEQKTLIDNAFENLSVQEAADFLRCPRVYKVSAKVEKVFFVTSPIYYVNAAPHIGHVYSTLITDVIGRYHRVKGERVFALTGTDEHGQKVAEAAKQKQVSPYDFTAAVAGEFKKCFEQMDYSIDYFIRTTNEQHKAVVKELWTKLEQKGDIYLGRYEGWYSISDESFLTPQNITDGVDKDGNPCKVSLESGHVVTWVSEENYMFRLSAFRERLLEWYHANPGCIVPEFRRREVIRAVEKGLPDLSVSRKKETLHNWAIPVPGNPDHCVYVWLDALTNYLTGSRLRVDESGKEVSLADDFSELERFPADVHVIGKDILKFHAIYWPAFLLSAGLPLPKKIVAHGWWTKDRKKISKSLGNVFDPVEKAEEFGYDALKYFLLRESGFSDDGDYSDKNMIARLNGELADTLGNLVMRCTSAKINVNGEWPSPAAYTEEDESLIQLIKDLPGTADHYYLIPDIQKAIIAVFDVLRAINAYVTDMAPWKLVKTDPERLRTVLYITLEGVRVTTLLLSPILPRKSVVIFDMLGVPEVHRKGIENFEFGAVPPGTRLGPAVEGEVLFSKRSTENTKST
# [25] = Late stage counterscreen for inhibitors of Trypanosoma brucei methionyl tRNA synthetase (MetRS): Luminescence-based cell-based high throughput dose response assay to identify compounds that are cytotoxic to Jurkat human T lymphocyte cells.; assay type: functional
# [26] = target: T1, Methionyl-tRNA synthetase, putative; assay type: functional, Trypanosoma brucei brucei strain 927/4 GUTat10.1; remark: listed apart in the source
# [27] = Counterscreen for inhibitors of Trypanosoma brucei methionyl tRNA synthetase (MetRS): Luminescence-based cell-based high throughput dose response assay to identify compounds that are cytotoxic to Jurkat human T lymphocyte cells.; assay type: functional
# [28] = cytotoxicity in A549 cells, dose response, cytotoxicity control, cell-based, CellTiter-Glo luminescence, cherry-pick (AID 743484); assay type: functional
# [29] = HEK293T cell cytotoxicity, dose response, cytotoxicity control, CellTiter-Glo luminescence, cherry-picked samples, set 4 (AID 743441); assay type: functional, cell-based; details: HEK293
# [30] = target: T2, Oxysterols receptor LXR-beta (Homo sapiens, UniProt P55055); assay type: functional, cell-based;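 note: agonist activity at LXR measured by a cell-based luminescence readout across a dose range, run as a counterscreen for daf-12 agonists; HEK293 cells with Gal4-LXR fusion and GAL4-driven luciferase reporter; potency for activation of Gal4-LXR reporter so compounds are agonists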
# T2 sequence (P55055 whole entry): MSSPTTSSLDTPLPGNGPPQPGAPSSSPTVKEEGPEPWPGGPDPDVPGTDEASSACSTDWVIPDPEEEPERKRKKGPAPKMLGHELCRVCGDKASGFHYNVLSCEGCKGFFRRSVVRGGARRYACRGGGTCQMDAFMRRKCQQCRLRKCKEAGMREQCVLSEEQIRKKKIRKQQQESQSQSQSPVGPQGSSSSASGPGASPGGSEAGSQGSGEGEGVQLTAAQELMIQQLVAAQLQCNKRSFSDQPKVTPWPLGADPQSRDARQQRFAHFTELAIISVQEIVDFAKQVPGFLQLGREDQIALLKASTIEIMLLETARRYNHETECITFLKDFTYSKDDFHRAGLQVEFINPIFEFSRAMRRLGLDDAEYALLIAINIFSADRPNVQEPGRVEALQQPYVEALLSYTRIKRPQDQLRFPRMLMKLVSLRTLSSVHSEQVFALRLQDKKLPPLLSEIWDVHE
# [31] = PAX2 cell-based inhibition, dose response, selectivity assay for PAX8 inhibitor project, plate reader, dry powder samples (AID 743048); assay type: functional;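 note: HEK293 cells carrying a WT1 promoter luciferase reporter driven by expressed Pax2; potency is for inhibition of Pax2 driven reporter signal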
# [32] = cytotoxicity dependent on PAX8, dose response, cell-based, plate reader, dry powder (AID 743049); assay type: functional
# Paired box protein Pax-8 = Paired box protein Pax-8 (Homo sapiens, UniProt Q06710); experiment: inhibitors of PAX8-driven TPO luciferase reporter, dose response, RMG-I cells, cherry-pick (AID 687027); assay type: functional, cell-based;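 note: luciferase reporter driven by Pax8 target thyroperoxidase promoter measured by SteadyGlo luminescence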
# Chain of Paired box protein Pax-8 (Q06710 whole entry): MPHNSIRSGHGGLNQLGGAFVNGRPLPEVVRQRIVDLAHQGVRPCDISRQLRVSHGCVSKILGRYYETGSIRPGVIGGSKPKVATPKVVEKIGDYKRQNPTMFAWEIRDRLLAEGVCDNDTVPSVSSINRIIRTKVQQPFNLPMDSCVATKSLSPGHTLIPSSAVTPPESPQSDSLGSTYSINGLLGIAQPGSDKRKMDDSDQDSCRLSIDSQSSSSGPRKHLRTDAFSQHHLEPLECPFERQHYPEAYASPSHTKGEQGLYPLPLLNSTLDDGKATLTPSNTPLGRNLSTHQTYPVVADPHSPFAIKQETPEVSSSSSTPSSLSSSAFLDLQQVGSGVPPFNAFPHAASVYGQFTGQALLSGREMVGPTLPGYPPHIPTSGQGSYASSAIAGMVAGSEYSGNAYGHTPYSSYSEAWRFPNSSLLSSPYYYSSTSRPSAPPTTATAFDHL
# [33] = NIH:OVCAR-3 ovarian cancer cell cytotoxicity, dose response, PAX8 inhibitor project, plate reader, dry powder samples (AID 743044); assay type: functional, cell-based
# [34] = cytotoxicity in OV-90 ovarian cancer cells, dose response, PAX8 inhibitor project, cell-based, plate reader, dry powder, SA8 (AID 743149); assay type: functional
# [35] = PAX5 activity inhibitors, dose response, selectivity assay for PAX8 inhibitor project, cell-based, plate reader, dry powder samples (AID 743047); assay type: functional;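 note: HEK293 cells carrying a Pax5 driven CD19 promoter luciferase reporter; potency of inhibitors that lower reporter luminescence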
# fMet-Leu-Phe receptor = fMet-Leu-Phe receptor (Homo sapiens, UniProt P21462); experiment: FPR ligands, dose response (AID 519); assay type: functional
# Chain of fMet-Leu-Phe receptor (P21462 whole entry): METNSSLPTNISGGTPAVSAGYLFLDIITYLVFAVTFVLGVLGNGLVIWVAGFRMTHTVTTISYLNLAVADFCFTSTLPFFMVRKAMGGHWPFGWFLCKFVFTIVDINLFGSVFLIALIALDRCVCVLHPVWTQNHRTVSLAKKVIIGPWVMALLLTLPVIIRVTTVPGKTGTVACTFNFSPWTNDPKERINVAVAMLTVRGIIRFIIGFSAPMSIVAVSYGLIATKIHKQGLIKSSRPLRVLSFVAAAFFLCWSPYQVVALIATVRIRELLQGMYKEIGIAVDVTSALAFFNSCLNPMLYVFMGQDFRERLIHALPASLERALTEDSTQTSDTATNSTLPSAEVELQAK
# [36] = growth inhibition of replicating M. tuberculosis, dose response, counter-screen, dry powder, IC90 (AID 651617); assay type: functional; details: Mycobacterium tuberculosis
# [37] = inhibitors of non-replicating M. tuberculosis, dose response, luciferase, dry powder (AID 651620); assay type: functional; details: Mycobacterium tuberculosis
# [38] = inhibitors of non-replicating M. tuberculosis, dose response, luciferase, dry powder (AID 651619); assay type: functional; details: Mycobacterium tuberculosis
smiles,measurement,setting,value
O=C(Nc1cccc(NC(=O)c2cccc(F)c2)c1)c1ccccc1,IC50,[1],0.046 µM (active)
CC(C)N1CCN(C2=C(Nc3ccc(F)cc3)C(=O)c3ccccc3C2=O)CC1,AC50,[2],38.6 µM (active)
same,AC50,[3],> 70 µM (inactive)
same,AC50,[4],3.6 µM (active)
same,AC50,[5],> 70 µM (inactive)
same,AC50,[6],38.6 µM (active)
same,AC50,[7],10.5 µM (active)
same,AC50,[8],9.77 µM (active)
same,AC50,[9],> 70 µM (inactive)
COc1cccc2nc3c(C(=O)NCCN(C)C)cccc3cc12,EC50,[10],> 91.2 µM (inactive)
same,EC50,[11],> 10.1 µM (inactive)
same,IC50,[12],> 43.8 µM (inactive)
Cc1ccc(C(=O)Nc2ncc(Cc3ccccc3)s2)o1,AC50,[13],12 µM (active)
same,AC50,[14],0.319 µM (active)
Cc1ccc(NC(=O)c2nn(C34CC5CC(CC(C5)C3)C4)cc2[N+](=O)[O-])cc1,IC50,[15],> 122 µM (inactive)
same,IC50,[16],> 122 µM (inactive)
Cc1cc(C2(O)C(=O)Nc3ccccc32)ccc1F (centres undefined),AC50,Caspase-6,13 µM (active)
COc1ccc(NC(=O)c2ccc(NC(=O)c3coc(=O)c(Br)c3)cc2)cc1,IC50,[17],27.2 µM (inactive)
same,IC50,[18],12.1 µM (inactive)
CSc1ccc(/C=C/C(=O)OCC(=O)NC2CCS(=O)(=O)C2)cc1 (centres undefined),EC50,Kallikrein-7,> 69.5 µM (inactive)
Cc1ccccc1CN(C)C[C@H]1OCc2cn(nn2)CCCC(=O)N([C@@H](C)CO)C[C@H]1C,AC50,HeLa,14.7 µM (active)
same,AC50,[19],46.7 µM (active)
same,AC50,HEK293,46.7 µM (active)
CC(C)C(NS(=O)(=O)c1c(Cl)cccc1Cl)C(=O)OCC(=O)c1c[nH]c2ccccc12 (centres undefined),IC50,[20],> 7.72 µM (active)
same,IC50,[21],> 69.5 µM (inactive)
O=S(=O)(c1ccc(F)cc1)N1C[C@@H]2N[C@H](C1)[C@@H]2c1ccc(/C=C/c2ccccc2)cc1,AC50,[22],19.1 µM (active)
N#Cc1ccc(-c2ccc3c(c2)[C@H]2[C@H](CCN2C(=O)C2CCCCC2)[C@H](CO)N3)cc1,AC50,[23],42 µM (active)
CN(CC(=O)Nc1ccc(Cl)cc1)C(=O)c1ccc(-n2cncn2)c([N+](=O)[O-])c1,IC50,[24],1.18 µM (active)
same,IC50,[25],> 83.3 µM (inactive)
same,IC50,[26],2 µM (active)
same,IC50,[27],83.3 µM (inactive)
C=CCNC(=O)c1ccccc1NC(=O)c1ccc(Cl)c(S(=O)(=O)Nc2cccc(C)c2C)c1,AC50,[28],30.1 µM (active)
same,AC50,[29],36.7 µM (active)
CC(C)C(N)c1csc(Nc2nncc3ccccc23)n1 (centres undefined),EC50,[30],> 67.1 µM (inactive)
CC(=O)N1CCOc2ccc(S(=O)(=O)N3CCN(c4cccc(C(F)(F)F)c4)CC3)cc21,AC50,[31],30.9 µM (active)
same,AC50,[32],94.5 µM (active)
same,AC50,Paired box protein Pax-8,2.36 µM (active)
same,AC50,[33],17.9 µM (active)
same,AC50,[34],63 µM (active)
same,AC50,[35],45.3 µM (active)
COc1ccc(OC)c(C2C(C(=O)c3ccccc3)=C(O)C(=O)N2Cc2ccco2)c1 (centres undefined),Ki,fMet-Leu-Phe receptor,3.4 µM (active)
c1ccc(-n2cc(CSc3nnc(C4CCCC4)o3)nn2)cc1,IC90,[36],125 µM (active)
same,IC90,[37],1 µM (active)
same,IC90,[38],1 µM (active)
